The results in this text go back to patent US8865734B2 (priority 2010, dated 2014).

Molecules are shown by their SMILES. Values after ≈ are worked out from the molar mass of the structure shown. Bounds are passed on as bounds.

This test deals with multi-drug resistant (MDR) clinical isolates. In words: microbe, parasite or virus in culture. The settings on record: for level of activity relative to MFX: MDR isolates and H37Rv; for MIC / MIC80: Mycobacterium tuberculosis. The format is cell-based, M. tuberculosis.

As to `CCc1nc2ccccn2c1C(=O)NCc1ccc(-c2ccccc2)cc1` [Compound 47, N-(Biphenyl-4-ylmethyl)-2-ethylimidazo[1,2-a]pyridine-3-carboxamide], the “level of activity relative to MFX” value was “comparable to or better than MFX” and the MIC is ≤ 1.25 µM. For the same molecule, where the note is “MDR isolate #13”, the MIC80 was 0.312 µM (≈ 0.111 µg/mL). In addition, under “MDR isolate #33”, the MIC80 is 0.312 µM (≈ 0.111 µg/mL). Where the note is “MDR isolate #48”, this molecule displayed an MIC80 of 0.312 µM (≈ 0.111 µg/mL). The molecule also showed an MIC80 (MDR isolate #61) of 0.312 µM (≈ 0.111 µg/mL). Also, the MIC80 (MDR isolate #80) worked out at 0.312 µM (≈ 0.111 µg/mL). The molecule further yielded an MIC80 (MDR isolate #125) of 0.625 µM (≈ 0.222 µg/mL). The MIC80 (MDR isolate #137) is 1.25 µM (≈ 0.444 µg/mL). Under “MDR isolate #143”, the MIC80 came out at 1.25 µM (≈ 0.444 µg/mL). The molecule further showed an MIC80 (MDR isolate #146) of 0.156 µM (≈ 0.0555 µg/mL). Moreover, the MIC80 (MDR isolate #171) was found to be 1.25 µM (≈ 0.444 µg/mL).

As for `CCc1nc2ccccn2c1C(=O)NCc1ccc(Oc2ccccc2)cc1` [Compound 54, 2-Ethyl-N-(4-phenoxybenzyl)imidazo[1,2-a]pyridine-3-carboxamide], the “level of activity relative to MFX” value is “comparable to or better than MFX” and the MIC is ≤ 0.625 µM. For the same molecule, the MIC80 (MDR isolate #13) is 0.156 µM (≈ 0.058 µg/mL). The same molecule had an MIC80 (MDR isolate #33) of 0.156 µM (≈ 0.058 µg/mL). Moreover, the MIC80 (MDR isolate #48) was 0.156 µM (≈ 0.058 µg/mL). The MIC80 (MDR isolate #61) was found to be 0.156 µM (≈ 0.058 µg/mL). The molecule also returned an MIC80 (MDR isolate #80) of 0.156 µM (≈ 0.058 µg/mL). In addition, the MIC80 (MDR isolate #125) came to 0.312 µM (≈ 0.116 µg/mL). The MIC80 (MDR isolate #137) was determined as 0.625 µM (≈ 0.232 µg/mL). The molecule further yielded an MIC80 (MDR isolate #143) of 0.312 µM (≈ 0.116 µg/mL). Where the note is “MDR isolate #146”, this molecule showed an MIC80 of 0.312 µM (≈ 0.116 µg/mL). This molecule gave an MIC80 (MDR isolate #171) of 0.312 µM (≈ 0.116 µg/mL).

Regarding `NNC(=O)c1ccncc1` [INH, Isoniazid, reference compound], the MIC80 stood at 5 µM (≈ 0.686 µg/mL) (MDR isolate #13); 10 µM (≈ 1.37 µg/mL) (MDR isolate #33); 10 µM (≈ 1.37 µg/mL) (MDR isolate #48); 20 µM (≈ 2.74 µg/mL) (MDR isolate #61); 5 µM (≈ 0.686 µg/mL) (MDR isolate #80); 10 µM (≈ 1.37 µg/mL) (MDR isolate #125). The MIC80 reads like this: (MDR isolate #137) 20 µM (≈ 2.74 µg/mL); (MDR isolate #143) 10 µM (≈ 1.37 µg/mL); (MDR isolate #146) 20 µM (≈ 2.74 µg/mL); (MDR isolate #171) 5 µM (≈ 0.686 µg/mL). Further, where the note is “all MDR tested strains”, the “resistance of the MDR strains” value is recorded as “resistance was confirmed”.
